Patent US20050245497A1, “Treatment of ophthalmic conditions” (priority 2004, published 2005)

Experiments:
[1] = tested on: bacterial endotoxin induced exudative response; assay: Bacterial endotoxin induced exudative response in rabbits, anterior chamber fluorophotometry of FITC-dextran; type: in vivo, New Zealand albino rabbits; details: topical 4 mg/ml; for exudative response (result in words) / reduction in the exudative response: treated eye versus saline control eye; for exudative response (result in words): n=5; for Anterior Chamber Fluorophotometer Results, Mean: Mean of 5 rabbits; for Anterior Chamber Fluorophotometer Results, Mean / Anterior Chamber Fluorophotometer Results: treated right eye, FITC-dextran fluorescence 90 minutes after endotoxin; for Anterior Chamber Fluorophotometer Results: 50 μL drop at 0, 1, 2 and 3 hours; for reduction in the exudative response: n=5, p<0.03 (Wilcoxon signed rank test)
Method: Thirty New Zealand albino rabbits weighing between 2.5 and 3.0 kg were used for this study. The rabbits were treated in accordance with the guidelines of the Association for Research in Vision and Ophthalmology (ARVO). One eye of each animal was used for experimental purposes, the other serving as a control eye. Slit lamp and indirect funduscopic examination was performed on all eyes before and after euthanasia.
The rabbits were divided into six groups. Group 1 (n=5) received topical 4 mg/ml deoxycortisone acetate (Spectrum Chemical Corp). Group 2 (n=5) received topical 4 mg/ml 11 -deoxycorticosterone (Spectrum Chemical Corp). Group 3 (n=5) received topical 4 mg/ml 11-desoxycortisone (Spectrum Chemical Corp). Group 4 (n=5) received topical 4 mg/ml aldosterone (Farmabios, Italy). Group 5 (n=5) received topical 4 mg/ml deoxycorticosterone (Spectrum Chemical Corp). Group 6 (n=5) received topical fludrocortisone acetate (Farmabios, Italy).
The rabbits were anaesthetised with 1 ml of a mixture of ketamine hydrochloride (35 mg/kg, intramuscular) and xylazine hydrochloride (5 mg/kg, intramuscular). In all groups, drugs were applied topically to the right eye and saline was applied to the left eye four times (at time 0, 1, 2 and 3 hours). Drugs and saline were administered to the eye as a single 50 μL drop.
20 mg/ml dextran-isothiocyanate-fluorescein (FITC-dextran, Sigma) was prepared and a 20 mg/kg dose was injected into the marginal ear vein at time […].
Endotoxin (2.5 μg/kg) isolated from Salmonella typhimurium (Sigma) was injected into the same vein at the same time with the third drop occurring at time 2 hours.
The FITC-dextran concentration in the anterior chamber was determined using a prototype fluorophotometer (OcuMetrics, Mountain View, Calif.) 90 minutes after an endotoxin administration. This instrument has excitation wavelengths of approximately 410 to 490 nm, with emission wavelengths of approximately 520 to 630 nm. The fluorescence emitted by the FITC-dextran was determined in both left and right eyes.
Statistical analysis was performed, comparing the anterior chamber fluorescence measurements of the test and control eye of each animal. A paired Wilcoxon Signed Rank Test (StatXact) was used, with a one sided p-value.

[2] = tested on: VEGF receptor Flk-1; assay: FACS analysis of Flk-1 expression in choroidal endothelial cells; type: cell-based; details: Example 1, FIG. 1; choroidal endothelial cells treated with PMA, compared to control cells
Method: (§1) To show the capacity of a mineralocorticoid, specifically fludrocortisone, to down-regulate receptors involved in biochemical pathways associated with oedema and exudative retinopathies, an assay was conducted looking at the activity of VEGF receptors Flk-1 and Flt-1 in choroidal endothelial cells. Flk-1 is known to be involved in cell proliferation whilst Flt-1 is involved in cell permeability.
(§2) The expression of Flk-1 and Flt-1 was measured, using fluorescence activated cell sorting (FACS) analysis, in untreated cells, cells treated with phorbolmyristate acetate (PMA), cells treated with PMA and then with the glucocorticoid triamcinolone acetonide (TA) and cells treated with PMA and then with the mineralocorticoid fludrocortisone. PMA is a model for pro-inflammatory cytokines and TA is known to […] the glucocorticoid receptor
(§3) The expression of Flk-1 and Flt-1 was also investigated in untreated choroidal endothelial cells, choroidal endothelial cells treated with Tumour Necrosis Factor-α (TNF-α) and choroidal endothelial cells treated with the mineralocorticoid fludrocortisone. TNF-α is a pro-inflammatory cytokine.

[3] = tested on: VEGF receptor Flt-1; assay: FACS analysis of Flt-1 expression in choroidal endothelial cells; type: cell-based
Method: as §1, §2, §3

Compound | exudative response (result in words) [1] | Anterior Chamber Fluorophotometer Results, Mean [1] | Anterior Chamber Fluorophotometer Results ([1]; Rabbit 1) | Anterior Chamber Fluorophotometer Results ([1]; Rabbit 2) | Anterior Chamber Fluorophotometer Results ([1]; Rabbit 3) | Anterior Chamber Fluorophotometer Results ([1]; Rabbit 4) | Anterior Chamber Fluorophotometer Results ([1]; Rabbit 5) | reduction in the exudative response [1] | expression of Flk-1 [2] | expression of Flt-1 ([3]; Example 1, FIG. 1, choroidal endothelial cells treated with PMA) | expression of Flt-1 ([3]; Example 2, FIG. 2, choroidal endothelial cells, compared to untreated control cells)
C[C@]12CC[C@H]3[C@@H](CCC4=CC(=O)CC[C@@]43C)[C@@H]1CC[C@@H]2C(=O)CO [11 -deoxycorticosterone] | did not show a reduction in the exudative response | – | – | – | – | – | – | – | – | – | –
C[C@]12CCC(=O)C=C1CC[C@@H]1[C@@H]2CC[C@@]2(C)[C@H]1CC[C@]2(O)C(=O)CO [11-DC, 17α,21-dihydroxypregn-4-ene-3,20-dione] | – | 331 | 696 | 578 | 141 | 147 | 92 | 37% | – | – | –
C[C@]12CCC(=O)C=C1CC[C@@H]1[C@@H]2[C@@H](O)C[C@]2(C=O)[C@@H](C(=O)CO)CC[C@@H]12 [AS, 11β-11,21-dihydroxy-3,20-dioxopregen-4-en-18-al] | very variable | 248 | 243 | 75 | 125 | 540 | 256 | – | – | – | –
CC(=O)OCC(=O)[C@H]1CC[C@H]2[C@@H]3CCC4=CC(=O)CC[C@]4(C)[C@H]3CC[C@]12C [DA, 21-hydroxypregn-4-ene-3,20-dione 21 acetate] | – | 201 | 220 | 116 | 455 | 100 | 113 | 47% | – | – | –
C[C@]12CC[C@H]3[C@@H](CCC4=CC(=O)CC[C@@]43C)[C@@H]1CC[C@@H]2C(=O)CO [DS, 21-hydroxypregn-4-ene-3,20-dione] | – | 174 | 340 | 245 | 59 | 86 | 140 | 37% | – | – | –
CC(=O)OCC(=O)[C@@]1(O)CC[C@H]2[C@@H]3CCC4=CC(=O)CC[C@]4(C)[C@@]3(F)[C@@H](O)C[C@@]21C [FA, fludrocortisone acetate] | – | 166 | 27 | 86 | 261 | 445 | 10 | 34% | – | – | –
CCCCCCCCCCCCCC(=O)O[C@@H]1[C@@H](C)[C@@]2(O)[C@@H](C=C(CO)C[C@]3(O)C(=O)C(C)=C[C@@H]23)[C@@H]2C(C)(C)[C@]12OC(C)=O [PMA, phorbolmyristate acetate] | – | – | – | – | – | – | – | – | increased | increased | –
TNF-α | – | – | – | – | – | – | – | – | – | – | higher levels of Flt-1
